# Reference: patent US9988400B2 (Genentech, Inc., priority 2013, dated 2018)
# Target: T1, HEK cells stably transfected with tetracycline inducible hNR1 and hNR2A (Homo sapiens, UniProt Q05586+Q12879)
# T1 construct: expressed in transfected cells; host or cells: HEK cells, stably transfected, tetracycline/doxycycline inducible
# Assay: Assay 1: Cell-Based Assay, cytosolic calcium response to positive allosteric modulators (with 30 μM glycine and 300 nM L-glutamate, EC30)
# Conditions: Table 3; cytosolic calcium response, with 30 μM glycine and 300 nM L-glutamate (EC30); — = no plateau was reached
# Outline: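 Cells induced 24 h with 7.5 μg mL^−1 doxycycline plus 500 μM (+)-ketamine, loaded 60 min at 37 °C with calcium dye in Mg-free HBSS (1.8 mM Ca, probenecid, 10 μM (+)-ketamine, pH 7.15). Peak RFU over 5 min after compound addition, scaled to 100 μM L-glutamate (100%) and 0 μM (0%); four-parameter Hill fit for EC50, max % if no plateau.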
# T1 sequence (Q12879 23-1464, other chains not shown): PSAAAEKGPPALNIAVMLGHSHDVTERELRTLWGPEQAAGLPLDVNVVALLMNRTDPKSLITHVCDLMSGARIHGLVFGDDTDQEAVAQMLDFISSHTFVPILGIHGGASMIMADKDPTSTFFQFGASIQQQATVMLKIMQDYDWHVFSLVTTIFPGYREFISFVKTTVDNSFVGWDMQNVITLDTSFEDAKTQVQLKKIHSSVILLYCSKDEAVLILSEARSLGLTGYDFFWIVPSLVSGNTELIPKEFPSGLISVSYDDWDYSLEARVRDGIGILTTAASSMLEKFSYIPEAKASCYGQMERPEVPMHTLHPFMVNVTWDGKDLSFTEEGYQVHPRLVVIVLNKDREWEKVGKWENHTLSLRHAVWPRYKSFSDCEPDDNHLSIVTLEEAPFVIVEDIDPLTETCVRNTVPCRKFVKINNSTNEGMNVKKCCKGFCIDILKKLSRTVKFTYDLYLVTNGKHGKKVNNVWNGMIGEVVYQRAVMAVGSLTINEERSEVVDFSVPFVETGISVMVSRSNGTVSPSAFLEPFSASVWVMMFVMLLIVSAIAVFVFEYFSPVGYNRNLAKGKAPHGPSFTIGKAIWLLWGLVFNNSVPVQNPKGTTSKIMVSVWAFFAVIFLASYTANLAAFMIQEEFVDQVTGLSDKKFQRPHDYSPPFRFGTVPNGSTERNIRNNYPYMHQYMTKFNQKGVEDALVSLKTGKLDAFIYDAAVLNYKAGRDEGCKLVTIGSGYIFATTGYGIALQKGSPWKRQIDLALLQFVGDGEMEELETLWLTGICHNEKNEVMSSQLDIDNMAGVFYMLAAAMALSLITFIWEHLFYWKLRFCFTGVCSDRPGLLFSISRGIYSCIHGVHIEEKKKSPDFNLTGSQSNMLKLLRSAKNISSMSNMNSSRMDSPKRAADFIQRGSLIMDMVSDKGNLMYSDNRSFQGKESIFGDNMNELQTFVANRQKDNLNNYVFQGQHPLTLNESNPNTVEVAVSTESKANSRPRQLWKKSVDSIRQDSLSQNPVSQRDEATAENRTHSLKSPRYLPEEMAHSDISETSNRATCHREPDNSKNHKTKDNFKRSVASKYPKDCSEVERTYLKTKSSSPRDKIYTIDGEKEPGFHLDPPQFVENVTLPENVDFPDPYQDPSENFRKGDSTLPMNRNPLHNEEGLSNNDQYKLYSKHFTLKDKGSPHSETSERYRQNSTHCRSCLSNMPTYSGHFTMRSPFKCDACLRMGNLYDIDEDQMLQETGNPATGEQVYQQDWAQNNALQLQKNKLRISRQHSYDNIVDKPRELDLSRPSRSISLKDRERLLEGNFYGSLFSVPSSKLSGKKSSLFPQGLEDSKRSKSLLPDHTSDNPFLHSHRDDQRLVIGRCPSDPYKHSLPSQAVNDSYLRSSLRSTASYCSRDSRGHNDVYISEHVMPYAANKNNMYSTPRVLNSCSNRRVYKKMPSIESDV
row,SMILES,EC50 [µM]
1,"O=c1cc(Cn2nc(C(F)(F)F)cc2Cl)nc2scc(C(F)(F)F)n12 [compound 239, 7-[[5-chloro-3-(trifluoromethyl)pyrazol-1-yl]methyl]-3-(trifluoromethyl)thiazolo[3,2-a]pyrimidin-5-one]",14.2
2,"N#CC1CC1c1csc2nc(Cn3nc(C(F)(F)F)cc3Cl)cc(=O)n12 (stereo not drawn) [compound 241, 2-[7-[[5-chloro-3-(trifluoromethyl)pyrazol-1-yl]methyl]-5-oxo-thiazolo[3,2-a]pyrimidin-3-yl]cyclopropanecarbonitrile]",0.313
3,"CC(=O)c1csc2nc(Cn3nc(C(F)(F)F)cc3Cl)cc(=O)n12 [compound 242, 3-acetyl-7-[[5-chloro-3-(trifluoromethyl)pyrazol-1-yl]methyl]thiazolo[3,2-a]pyrimidin-5-one]",11.4
4,"COc1sc2nc(Cn3nc(C(F)(F)F)cc3Cl)cc(=O)n2c1C(C)=O [compound 244, 3-Acetyl-7-[[5-chloro-3-(trifluoromethyl)pyrazol-1-yl]methyl]-2-methoxy-thiazolo[3,2-a]pyrimidin-5-one]",0.392
5,"COc1sc2nc(Cn3nc(Cl)cc3C(F)(F)F)cc(=O)n2c1C(C)=O [compound 245, 3-acetyl-7-[[3-chloro-5-(trifluoromethyl)pyrazol-1-yl]methyl]-2-methoxy-thiazolo[3,2-a]pyrimidin-5-one]",0.409
6,"O=c1cc(Cn2nc(C(F)(F)F)cc2Cl)nc2sc(C(F)(F)F)c(-c3ccn[nH]3)n12 [compound 247, 7-[[5-chloro-3-(trifluoromethyl)pyrazol-1-yl]methyl]-3-(1H-pyrazol-5-yl)-2-(trifluoromethyl)thiazolo[3,2-a]pyrimidin-5-one]",7.7
7,"O=c1cc(Cn2nc(C(F)(F)F)cc2Cl)nc2sc(C(F)(F)F)c(-c3cscn3)n12 [compound 248, 7-[[5-chloro-3-(trifluoromethyl)pyrazol-1-yl]methyl]-3-thiazol-4-yl-2-(trifluoromethyl)thiazolo[3,2-a]pyrimidin-5-one]",1.45
8,"O=c1cc(Cn2nc(C(F)(F)F)cc2Cl)nc2sc(C(F)(F)F)c(-c3cncc(F)c3)n12 [compound 249, 7-[[5-chloro-3-(trifluoromethyl)pyrazol-1-yl]methyl]-3-(5-fluoro-3-pyridyl)-2-(trifluoromethyl)thiazolo[3,2-a]pyrimidin-5-one]",6.33
9,"CC1CC1c1c(C(F)(F)F)sc2nc(Cc3cccc(C#N)c3F)cc(=O)n12 (stereo not drawn) [compound 253, 2-fluoro-3-[[3-[2-methylcyclopropyl]-5-oxo-2-(trifluoromethyl)thiazolo[3,2-a]pyrimidin-7-yl]methyl]benzonitrile]",9.95
10,"O=c1cc(Cn2nc(C(F)(F)F)cc2Cl)nc2sc(C(F)(F)F)c(N3CC(F)C3)n12 [compound 254, 7-[[5-chloro-3-(trifluoromethyl)pyrazol-1-yl]methyl]-3-(3-fluoroazetidin-1-yl)-2-(trifluoromethyl)thiazolo[3,2-a]pyrimidin-5-one]",1.37
11,"O=c1cc(Cn2nc(C(F)(F)F)cc2Cl)nc2sc(C(F)(F)F)c(-c3cncc(Cl)c3)n12 [compound 255, 3-(5-chloro-3-pyridyl)-7-[[5-chloro-3-(trifluoromethyl)pyrazol-1-yl]methyl]-2-(trifluoromethyl)thiazolo[3,2-a]pyrimidin-5-one]",7.86
12,"CCNC(=O)c1c(C(F)(F)F)sc2nc(Cn3nc(Cl)cc3Cl)cc(=O)n12 [compound 256, 7-[(3,5-dichloropyrazol-1-yl)methyl]-N-ethyl-5-oxo-2-(trifluoromethyl)thiazolo[3,2-a]pyrimidine-3-carboxamide]",0.611
13,"CCNC(=O)c1c(C(F)F)sc2nc(Cn3nc(C(F)(F)F)cc3Cl)cc(=O)n12 [compound 258, 7-[[5-Chloro-3-(trifluoromethyl)pyrazol-1-yl]methyl]-2-(difluoromethyl)-N-ethyl-5-oxo-thiazolo[3,2-a]pyrimidine-3-carboxamide]",0.227
14,"CCNC(=O)c1c(C(F)F)sc2nc(Cn3nc(Cl)cc3C(F)(F)F)cc(=O)n12 [compound 259, 7-[[3-chloro-5-(trifluoromethyl)pyrazol-1-yl]methyl]-2-(difluoromethyl)-N-ethyl-5-oxo-thiazolo[3,2-a]pyrimidine-3-carboxamide]",0.749
15,"CCN(Cc1cc(=O)n2c(/C=C\C#N)c(C)sc2n1)c1ccc(F)cc1 [compound 260, (Z)-3-[7-[(N-ethyl-4-fluoro-anilino)methyl]-2-methyl-5-oxo-thiazolo[3,2-a]pyrimidin-3-yl]prop-2-enenitrile]",2.45
16,"Cc1sc2nc(Cn3nc(C(F)(F)F)cc3Cl)cc(=O)n2c1/C=C/C#N [compound 262, (E)-3-[7-[[5-chloro-3-(trifluoromethyl)pyrazol-1-yl]methyl]-2-methyl-5-oxo-thiazolo[3,2-a]pyrimidin-3-yl]prop-2-enenitrile]",1.11
17,"CCNC(=O)c1c(C)sc2nc(Cn3nc(C(F)(F)F)cc3CC(C)C)cc(=O)n12 [compound 265, N-ethyl-7-[[5-isobutyl-3-(trifluoromethyl)pyrazol-1-yl]methyl]-2-methyl-5-oxo-thiazolo[3,2-a]pyrimidine-3-carboxamide]",4.84
18,N#CC1CC1c1c(Cl)sc2nc(Cn3nc(C(F)(F)F)cc3Cl)cc(=O)n12 (stereo not drawn) [compound 267],0.157
19,"N#CC1CC1c1c(Cl)sc2nc(Cn3nc(Cl)cc3C(F)(F)F)cc(=O)n12 (stereo not drawn) [compound 268, 2-[2-chloro-7-[[3-chloro-5-(trifluoromethyl)pyrazol-1-yl]methyl]-5-oxo-thiazolo[3,2-a]pyrimidin-3-yl]cyclopropanecarbonitrile]",0.182
20,"Cc1sc2nc(Cc3nc(C(F)(F)F)cn3C)cc(=O)n2c1C1CC1C#N (stereo not drawn) [compound 278, 2-[2-methyl-7-[[1-methyl-4-(trifluoromethyl)imidazol-2-yl]methyl]-5-oxo-thiazolo[3,2-a]pyrimidin-3-yl]cyclopropanecarbonitrile]",10.6
21,"CCN(Cc1cc(=O)n2c(/C=C/C#N)c(C)sc2n1)c1ccc(F)cc1 [compound 279, (E)-3-[7-[(N-ethyl-4-fluoro-anilino)methyl]-2-methyl-5-oxo-thiazolo[3,2-a]pyrimidin-3-yl]prop-2-enenitrile]",1.82

# More lines, in order of falling EC50, values ahead:
row,EC50 [µM],SMILES
1,37.1,"Cc1sc2nc(Cc3cccc(C(F)(F)F)c3F)cc(=O)n2c1-c1ncn[nH]1 [compound 240, 7-[[2-Fluoro-3-(trifluoromethyl)phenyl]methyl]-2-methyl-3-(1H-1,2,4-triazol-5-yl)thiazolo[3,2-a]pyrimidin-5-one]"
2,20.5,"CC(=O)c1c(C(F)(F)F)sc2nc(Cc3cccc(C#N)c3F)cc(=O)n12 [compound 257, 3-[[3-acetyl-5-oxo-2-(trifluoromethyl)thiazolo[3,2-a]pyrimidin-7-yl]methyl]-2-fluoro-benzonitrile]"
3,13.8,"CCC(=O)c1c(C(F)(F)F)sc2nc(Cn3nc(C(F)(F)F)cc3Cl)cc(=O)n12 [compound 250, 7-[[5-Chloro-3-(trifluoromethyl)pyrazol-1-yl]methyl]-3-propanoyl-2-(trifluoromethyl)thiazolo[3,2-a]pyrimidin-5-one]"
4,5.76,"Cc1sc2nc(Cn3nc(Cl)cc3C(F)(F)F)cc(=O)n2c1C(C)C#N (stereo not drawn) [compound 252, 2-[7-[[3-chloro-5-(trifluoromethyl)pyrazol-1-yl]methyl]-2-methyl-5-oxo-thiazolo[3,2-a]pyrimidin-3-yl]propanenitrile]"
5,5.09,"Cc1sc2nc(Cn3nc(C(F)(F)F)cc3Cl)cc(=O)n2c1/C=C/C(N)=O [compound 264, (E)-3-[7-[[5-chloro-3-(trifluoromethyl)pyrazol-1-yl]methyl]-2-methyl-5-oxo-thiazolo[3,2-a]pyrimidin-3-yl]prop-2-enamide]"
6,3.57,"Cc1sc2nc(Cc3nn(C)cc3Cl)cc(=O)n2c1C1CC1C#N (stereo not drawn) [compound 271, 2-[7-[(4-chloro-1-methyl-pyrazol-3-yl)methyl]-2-methyl-5-oxo-thiazolo[3,2-a]pyrimidin-3-yl]cyclopropanecarbonitrile]"
7,2.32,"CCNC(=O)c1c(C(C)=O)sc2nc(Cn3nc(Cl)cc3C(F)(F)F)cc(=O)n12 [compound 238, 2-acetyl-7-[[3-chloro-5-(trifluoromethyl)pyrazol-1-yl]methyl]-N-ethyl-5-oxo-thiazolo[3,2-a]pyrimidine-3-carboxamide]"
8,1.54,"CCN(Cc1cc(=O)n2c(/C=C/C(N)=O)c(C)sc2n1)c1ccc(F)cc1 [compound 261, (E)-3-[7-[(N-ethyl-4-fluoro-anilino)methyl]-2-methyl-5-oxo-thiazolo[3,2-a]pyrimidin-3-yl]prop-2-enamide]"
9,0.864,"O=c1cc(Cn2nc(C(F)(F)F)cc2Cl)nc2sc(C(F)(F)F)c(OCC(F)(F)F)n12 [compound 243, 7-[[5-chloro-3-(trifluoromethyl)pyrazol-1-yl]methyl]-3-(2,2,2-trifluoroethoxy)-2-(trifluoromethyl)thiazolo[3,2-a]pyrimidin-5-one]"
10,0.501,"Cc1sc2nc(Cn3nc(C(F)(F)F)cc3Cl)cc(=O)n2c1/C=C\C#N [compound 263, (Z)-3-[7-[[5-chloro-3-(trifluoromethyl)pyrazol-1-yl]methyl]-2-methyl-5-oxo-thiazolo[3,2-a]pyrimidin-3-yl]prop-2-enenitrile]"
11,0.42,Cc1sc2nc(Cn3nc(Cl)cc3Cl)cc(=O)n2c1C1CC1C#N (stereo not drawn) [compound 251]
12,0.0999,"Cc1sc2nc(Cn3nc([N+](=O)[O-])cc3Cl)cc(=O)n2c1Br [compound 246, 3-bromo-7-[(5-chloro-3-nitro-pyrazol-1-yl)methyl]-2-methyl-thiazolo[3,2-a]pyrimidin-5-one]"
